We go through 47 compounds from patent US20250215014A1, “KINASE INHIBITORS, PREPARATION METHODS AND USES THEREOF” (InventisBio Co., Ltd., priority 2022, published 2025).

The target of one assay is DGKa (Homo sapiens (Human), UniProt P23743). Put plainly: DGK ADP-Glo Kinase Assay (DGKa). The following applies: 10 nM DGKa, 15 uM ATP. Type of assay: biochemical. On the procedure:
(§1) Luminescence was recorded using an Tecan SPARK microplate reader.
(In general: In ADP-Glo the light output rises with the ADP produced.)

For a further assay, the target named is DGKz (Homo sapiens (Human), UniProt Q13574). Put plainly: DGK ADP-Glo Kinase Assay (DGKz). Type of assay: biochemical. The following applies: 5 nM DGKz, 15 uM ATP. Here is the method: as §1
Sequence of DGKz (Q13574 whole entry): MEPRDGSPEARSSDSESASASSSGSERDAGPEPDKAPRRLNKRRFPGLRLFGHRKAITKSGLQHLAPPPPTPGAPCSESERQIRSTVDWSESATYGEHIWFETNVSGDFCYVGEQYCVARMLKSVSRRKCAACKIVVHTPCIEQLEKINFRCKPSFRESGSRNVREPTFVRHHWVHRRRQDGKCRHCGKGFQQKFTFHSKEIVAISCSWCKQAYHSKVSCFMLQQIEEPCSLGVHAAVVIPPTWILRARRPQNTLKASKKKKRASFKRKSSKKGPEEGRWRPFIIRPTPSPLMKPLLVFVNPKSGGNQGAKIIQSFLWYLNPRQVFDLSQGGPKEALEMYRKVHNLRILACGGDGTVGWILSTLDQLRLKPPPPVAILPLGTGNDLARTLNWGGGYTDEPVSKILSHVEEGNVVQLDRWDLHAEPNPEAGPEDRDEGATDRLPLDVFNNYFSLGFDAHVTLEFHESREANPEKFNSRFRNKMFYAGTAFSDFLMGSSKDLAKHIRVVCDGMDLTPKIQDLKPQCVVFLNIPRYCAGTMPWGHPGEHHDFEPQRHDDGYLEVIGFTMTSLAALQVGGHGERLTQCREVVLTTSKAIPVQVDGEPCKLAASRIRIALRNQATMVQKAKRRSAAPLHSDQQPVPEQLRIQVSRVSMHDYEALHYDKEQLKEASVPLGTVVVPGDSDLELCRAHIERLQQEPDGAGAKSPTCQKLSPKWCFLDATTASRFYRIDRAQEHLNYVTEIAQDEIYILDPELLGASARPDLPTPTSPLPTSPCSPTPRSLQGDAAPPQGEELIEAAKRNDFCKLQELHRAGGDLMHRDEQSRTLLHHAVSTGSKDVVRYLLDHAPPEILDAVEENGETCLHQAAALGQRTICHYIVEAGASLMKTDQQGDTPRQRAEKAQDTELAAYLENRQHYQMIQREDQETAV

Sequence of DGKa (P23743 whole entry): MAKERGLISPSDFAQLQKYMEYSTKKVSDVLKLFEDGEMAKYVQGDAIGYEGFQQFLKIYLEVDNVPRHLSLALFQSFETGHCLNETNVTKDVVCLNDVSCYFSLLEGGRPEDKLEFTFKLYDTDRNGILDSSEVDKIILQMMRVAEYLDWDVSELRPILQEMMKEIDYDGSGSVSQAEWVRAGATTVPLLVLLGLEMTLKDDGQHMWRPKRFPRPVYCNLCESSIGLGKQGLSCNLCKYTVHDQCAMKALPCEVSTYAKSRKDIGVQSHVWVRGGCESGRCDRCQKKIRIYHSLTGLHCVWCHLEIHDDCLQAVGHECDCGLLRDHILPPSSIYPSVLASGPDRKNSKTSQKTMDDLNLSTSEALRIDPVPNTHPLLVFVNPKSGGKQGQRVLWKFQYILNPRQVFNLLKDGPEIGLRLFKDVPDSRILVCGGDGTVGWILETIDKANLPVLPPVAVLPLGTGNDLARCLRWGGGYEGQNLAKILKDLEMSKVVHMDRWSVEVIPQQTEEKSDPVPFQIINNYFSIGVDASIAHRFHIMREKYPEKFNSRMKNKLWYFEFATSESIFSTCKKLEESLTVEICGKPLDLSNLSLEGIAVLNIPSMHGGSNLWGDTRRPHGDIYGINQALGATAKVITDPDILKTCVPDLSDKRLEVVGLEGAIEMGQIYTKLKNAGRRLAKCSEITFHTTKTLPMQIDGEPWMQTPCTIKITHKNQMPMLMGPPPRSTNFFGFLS

A word on the IC50: it is the concentration that inhibits the measured activity by half. Take `CC[C@@H]1C[C@H](Oc2ccc(OC(F)(F)F)cc2)CCN1c1nc(=O)n(C)c2ccc(C#N)nc12` [Compound 16]: the IC50 is 100 to 1000 nM on DGKa and less than 100 nM against DGKz.

`Cc1ccc2oc(C3CCN(c4nc(=O)n(C)c5ccc(C#N)nc45)CC3)nc2c1` [Compound 20]: the IC50 against DGKa and against DGKz was more than 1000 nM each time.

With `Cc1ccc2oc(C3CCN(c4nc(=O)n(C)c5ccc6nncn6c45)CC3)nc2c1` [Compound 22], the IC50 at DGKa was less than 100 nM; against DGKz, more than 1000 nM.

For the compound `CC[C@H]1CN([C@@H](CC)c2ccc(S(F)(F)(F)(F)F)cc2)[C@H](CC)CN1c1nc(=O)n(C)c2ccc(C#N)nc12` [Compound 28], the IC50 against DGKa and against DGKz was less than 100 nM each time.

For the compound `CC[C@H]1CN([C@H](CC)c2ccc(S(F)(F)(F)(F)F)cc2)[C@H](CC)CN1c1nc(=O)n(C)c2ccc(C#N)nc12` [Compound 29], the IC50 against DGKa and at DGKz was less than 100 nM each time.

Regarding `Cn1c(=O)nc(N2CCC3(CC2)CC(c2ccc(OC(F)(F)F)cc2)=NO3)c2nc(C#N)ccc21` [Compound 31], the IC50 on DGKa and against DGKz was less than 100 nM each time.

For `Cc1ccc2oc(C3CCN(c4nc(=O)n(C)c5cc(O[C@@H]6CCOC6)c(Cl)cc45)CC3)nc2c1` [Compound 32], the IC50 against DGKa is less than 100 nM; against DGKz it was more than 1000 nM.

Consider `Cc1ccc2oc(C3CCN(c4nc(=O)n(C)c5cc(O[C@H]6CCOC6)c(Cl)cc45)CC3)nc2c1` [Compound 33], for which the IC50 at DGKa and against DGKz was less than 100 nM in each case.

Take `Cn1c(=O)nc(N2CCC3(CC2)COC(c2ccc(OC(F)(F)F)cc2)=N3)c2nc(Cl)ccc21` [Compound 37]: the figures for the IC50 at DGKa and against DGKz were less than 100 nM and 100 to 1000 nM, respectively.

On to `Cn1c(=O)nc(N2CCCc3c(C#CC4CC4)cccc32)c2nc(C#N)ccc21` [Compound 39], for which the IC50 on DGKa was less than 100 nM; on DGKz it was more than 1000 nM.

Turning to `Cn1c(=O)nc(N2CCCc3c(C#CC4CC4)cccc32)c2nc(C#N)ccc21` [Compound 42], the IC50 at DGKa was less than 100 nM; at DGKz, 100 to 1000 nM.

With `CC[C@H]1CN([C@H]2CCCCc3cc(C(F)(F)F)ccc32)[C@H](CC)CN1c1nc(=O)n(C)c2ccc(C#N)nc12` [Compound 44], the IC50 against DGKa is less than 100 nM; against DGKz, 100 to 1000 nM.

Turning to `CN(c1cccc(C#CC2CC2)c1)c1nc(=O)n(C)c2ccc(C#N)nc12` [Compound 46], the IC50 is less than 100 nM against DGKa and 100 to 1000 nM against DGKz.

For the compound `Cn1c(=O)nc(N2CCC3(CC2)CC(c2cccc(C(F)(F)F)c2)=NO3)c2nc(C#N)ccc21` [Compound 47], the IC50 on DGKa and against DGKz was less than 100 nM throughout.

In the case of `CC[C@H]1CN(C(C)c2ccc(SC(F)(F)F)cc2)[C@H](CC)CN1c1nc2nncn2c2ccc(C#N)nc12` (stereo partly shown) [Compound 51], the IC50 against DGKa and against DGKz was less than 100 nM throughout.

For `N#Cc1ccc2c(n1)c(N1CCC3(CC1)CC(c1ccc(C(F)(F)F)cc1)=NO3)nc1nncn12` [Compound 53], the results for the IC50 on DGKa and against DGKz were less than 100 nM and 100 to 1000 nM, respectively.

Consider `N#Cc1ccc2c(n1)c(N1CCC3(CC1)CC(c1ccc(SC(F)(F)F)cc1)=NO3)nc1nncn12` [Compound 54], for which the IC50 against DGKa was less than 100 nM; against DGKz, 100 to 1000 nM.

As to `CC[C@H]1CN([C@H](c2ccc(SC(F)(F)F)cc2)c2nc(C3CC3)cs2)[C@H](CC)CN1c1nc(=O)n(C)c2ccc(C#N)nc12` [Compound 57], the results for the IC50 against DGKa and at DGKz were less than 100 nM and 100 to 1000 nM, respectively.

Regarding `CC[C@H]1CN([C@@H](c2ccc(SC(F)(F)F)cc2)c2nc(C3CC3)cs2)[C@H](CC)CN1c1nc(=O)n(C)c2ccc(C#N)nc12` [Compound 58], the IC50 on DGKa is less than 100 nM; against DGKz, 100 to 1000 nM.

As to `N#Cc1cc2c3c(n1)c(N1CCC4(CC1)CC(c1ccc(OC(F)(F)F)cc1)=NO4)nc(=O)n3CCO2` [Compound 59], the IC50 is less than 100 nM on DGKa and 100 to 1000 nM against DGKz.

Turning to `CC[C@H]1CN(C(c2ccc(S(F)(F)(F)(F)F)cc2)c2nc(C3CC3)no2)[C@H](CC)CN1c1nc(=O)n(C)c2ccc(C#N)nc12` (stereo partly shown) [Compound 64], the IC50 against DGKa and against DGKz was less than 100 nM each time.

Regarding `CC[C@@H]1CN(c2nc(=O)n(C)c3ccc(C#N)nc23)[C@@H](C)CN1C(c1ccc(S(F)(F)(F)(F)F)cc1)c1nc(C2CC2)no1` (stereo partly shown) [Compound 65], the IC50 at DGKa and at DGKz was less than 100 nM in each case.

Consider `CC[C@@H]1CN(c2nc(=O)n(C)c3ccc(C#N)nc23)[C@@H](C)CN1[C@@H](c1ccc(F)cc1)c1ccc(SC(F)(F)F)cn1` [Compound 72], for which the IC50 on DGKa and against DGKz was less than 100 nM in each case.

Consider `CC[C@@H]1CN(c2nc(=O)n(C)c3ccc(C#N)nc23)[C@@H](C)CN1[C@H](c1ccc(F)cc1)c1ccc(SC(F)(F)F)cn1` [Compound 73], for which the IC50 on DGKa and against DGKz was less than 100 nM in each case.

As to `CC[C@H]1CN(C(CO)c2ccc(S(F)(F)(F)(F)F)cc2)[C@H](CC)CN1c1nc(=O)n(C)c2ccc(C#N)nc12` (stereo partly shown) [Compound 77], the IC50 on DGKa and against DGKz was less than 100 nM each time.

Turning to `CC[C@H]1CN(C(COC)c2ccc(S(F)(F)(F)(F)F)cc2)[C@H](CC)CN1c1nc(=O)n(C)c2ccc(C#N)nc12` (stereo partly shown) [Compound 78], the IC50 at DGKa and on DGKz was less than 100 nM each time.

`CC[C@@H]1CN(c2nc3nncn3c3ccc(C#N)nc23)[C@@H](CC)CN1C(=O)c1ccc(C(F)(F)F)cc1` [Compound 84]: the figures for the IC50 against DGKa and at DGKz were less than 100 nM and more than 1000 nM, respectively.

`CC[C@@H]1CN(c2nc3nncn3c3ccc(C#N)nc23)[C@@H](CC)CN1C(=O)Cc1ccc(C(F)(F)F)cc1` [Compound 85]: the IC50 is less than 100 nM at DGKa and 100 to 1000 nM against DGKz.

For the compound `CC[C@@H]1C[C@H](c2nc3cc(C)ccc3o2)CCN1c1nc(=O)n(C)c2cc(O[C@H]3CCOC3)c(Cl)cc12` [Compound 91], the IC50 was less than 100 nM at DGKa and more than 1000 nM against DGKz.

As to `CC[C@@H]1C[C@H](c2nc3cc(C)ccc3o2)CCN1c1nc(=O)n(C)c2cc(O[C@@H]3CCOC3)c(Cl)cc12` [Compound 92], the half-inhibitory concentration (IC50) on DGKa was 100 to 1000 nM; on DGKz, less than 100 nM.

On to `CC[C@H]1C[C@@H](c2nc3cc(C)ccc3o2)CCN1c1nc(=O)n(C)c2cc(O[C@H]3CCOC3)c(Cl)cc12` [Compound 93], for which the results for the IC50 on DGKa and at DGKz were less than 100 nM and 100 to 1000 nM, respectively.

In the case of `CC[C@H]1C[C@@H](c2nc3cc(C)ccc3o2)CCN1c1nc(=O)n(C)c2cc(O[C@@H]3CCOC3)c(Cl)cc12` [Compound 94], the IC50 against DGKa was 100 to 1000 nM; on DGKz, more than 1000 nM.

On to `CC[C@@H]1CN(c2nc3nncn3c3ccc(C#N)nc23)[C@@H](CC)CN1C(=O)Nc1ccc(C(F)(F)F)cc1` [Compound 95], for which the IC50 is less than 100 nM against DGKa and 100 to 1000 nM against DGKz.

As to `CC[C@H]1CN([C@H](c2ccc(S(F)(F)(F)(F)F)cc2)c2nc(C3CC3)cs2)[C@H](CC)CN1c1nc(=O)n(C)c2ccc(C#N)nc12` [Compound 98], the IC50 against DGKa and against DGKz was less than 100 nM each time.

As for `CC[C@H]1CN([C@@H](c2ccc(S(F)(F)(F)(F)F)cc2)c2nc(C3CC3)cs2)[C@H](CC)CN1c1nc(=O)n(C)c2ccc(C#N)nc12` [Compound 99], the IC50 against DGKa and against DGKz was less than 100 nM each time.

For `CCC(c1ccc(C(F)(F)F)cc1)N1CCN(c2nc3nncn3c3ccc(C#N)nc23)C(CC)C1` (stereo not shown) [Compound 102], the IC50 against DGKa is less than 100 nM; at DGKz, more than 1000 nM.

For the compound `CCC(c1ccc(C23CC(C2)C3)nc1)N1C[C@H](CC)N(c2nc3nncn3c3ccc(C#N)nc23)C[C@H]1CC` (stereo partly shown) [Compound 104], the IC50 against DGKa and at DGKz was less than 100 nM throughout.

Turning to `CC[C@@H]1CN2c3c(c(=O)n(C)c4ccc(C#N)nc34)OC[C@H]2CN1[C@@H](CC)c1ccc(C(F)(F)F)cc1` [Compound 107], the IC50 was less than 100 nM at DGKa and 100 to 1000 nM against DGKz.

For `CC[C@@H]1CN2c3c(c(=O)n(C)c4ccc(C#N)nc34)OC[C@H]2CN1[C@H](CC)c1ccc(S(F)(F)(F)(F)F)cc1` [Compound 108], the figures for the 50% inhibitory concentration (IC50) against DGKa and against DGKz were less than 100 nM and 100 to 1000 nM, respectively.

In the case of `CC[C@H]1CN([C@H]2CCCCc3cc(C(F)(F)F)ccc32)[C@H](CC)CN1c1nc2nncn2c2ccc(C#N)nc12` [Compound 113], the IC50 at DGKa is less than 100 nM; at DGKz, 100 to 1000 nM.

With `CC[C@H]1CN([C@@H]2CCCCc3cc(C(F)(F)F)ccc32)[C@H](CC)CN1c1nc2nncn2c2ccc(C#N)nc12` [Compound 114], the IC50 against DGKa and against DGKz was less than 100 nM in each case.

As for `CC[C@H]1CN([C@@H](CC)c2nc(C3CC3)no2)[C@H](CC)CN1c1nc2nncn2c2ccc(C#N)nc12` [Compound 119], the IC50 at DGKa and at DGKz was less than 100 nM in each case.

Regarding `CC[C@H]1CN([C@H](CC)c2nc(C3CC3)no2)[C@H](CC)CN1c1nc2nncn2c2ccc(C#N)nc12` [Compound 120], the IC50 at DGKa is less than 100 nM; against DGKz it was 100 to 1000 nM.

In the case of `CC[C@@H]1CN2c3c(c(=O)n(C)c4ccc(C#N)nc34)OC[C@@H]2CN1[C@@H](CC)c1ccc(C(F)(F)F)cc1` [Compound 121], the IC50 at DGKa was less than 100 nM; at DGKz, more than 1000 nM.

For the compound `CC[C@@H]1CN2c3c(c(=O)n(C)c4ccc(C#N)nc34)OC[C@@H]2CN1[C@H](CC)c1ccc(C(F)(F)F)cc1` [Compound 122], the IC50 at DGKa and against DGKz was less than 100 nM throughout.

Turning to `CC[C@@H]1CN2c3c(c(=O)n(C)c4ccc(C#N)nc34)OC[C@@H]2CN1[C@@H](CC)c1ccc(SC(F)(F)F)cc1` [Compound 123], the IC50 is less than 100 nM against DGKa and 100 to 1000 nM against DGKz.

As to `CC[C@@H]1CN2c3c(c(=O)n(C)c4ccc(C#N)nc34)OC[C@@H]2CN1[C@H](CC)c1ccc(SC(F)(F)F)cc1` [Compound 124], the IC50 on DGKa is less than 100 nM; at DGKz, 100 to 1000 nM.
